# Test results reported in US20080287426A1, “Method of Inducing Resistance to Harmful Fungi” (priority 2005, published 2008).
# System: S. tritici
# Test: S. tritici infection of wheat seedlings after spraying first leaves (induced resistance)
# Assay type: in vivo, Septoria tritici
# Protocol: Wheat seedlings at the 2 leaf stage were used in the study. Plants were grown singly in pots and were split into two batches. First leaves were sprayed with pyraclostrobin at the recommended rate (first leaves of controls were sprayed with distilled water) and the plants to be used for disease assessment were inoculated with S. tritici once leaves had dried. Both first and second leaves were inoculated by spraying with a spore suspension of 1×10^5 spores/ml of distilled water containing a drop of Tween 20. Immediately after inoculation, pots were placed in water-saturated trays and covered with clear polyethene bags for 48 h. Thereafter plants were grown at 18° C. with 12 h/12 h light/dark alternation. Infection intensity was assessed 18 days after inoculation by estimating the % leaf area covered by symptoms.
substance,measurement,setting,value
pyraclostrobin,reduced infection on first leaves,"after 18 days, compared to non treated controls",65%
same,reduced infection on second leaves,"after 18 days, compared to non treated controls, only first leaves sprayed",61%
same,Infection (% leaf area showing symptoms) First leaf,"wheat seedlings, first leaves sprayed at the recommended rate, 18 days after inoculation, means ±SE of 10 replicates, pyraclostrobin-resistant isolate",17 ± 2.3 % leaf area showing symptoms
same,reduces S. tritici infection of first and second leaves,"wheat seedlings, isolate resistant to pyraclostrobin",> 60%
same,Infection (% leaf area showing symptoms) Second leaf,"wheat seedlings, only first leaves sprayed at the recommended rate, 18 days after inoculation, means ±SE of 10 replicates, pyraclostrobin-resistant isolate",16 ± 1.4 % leaf area showing symptoms
